# From patent US20240139188A1, “Arylamide Compounds For Treatment And Prevention Of Fungal Infections” (priority 2022, published 2024)
# Read-outs that look alike come from different tables or passages of the source. Numbered stars: 1 amine (or outer) side, 2 acyl side, 3 side chain; on linkers, the order of the positions; unused ones are H or OH. Bridge positions count the residues as written; N and C are the ends. Square brackets hold non-standard residues; d marks the D form. Peptide text beside a SMILES is read from it. * marks the point of attachment. hTyr(3S-OH,4S-OH,3'-OSO3H) = N[C@H](C(=O)O)[C@H](O)[C@@H](O)c1ccc(O)c(OS(=O)(=O)O)c1; Orn(4R-OH,5R-OH) = O=C([C@H](C[C@@H](O)[C@@H](O)N[*:3])N[*:1])[*:2]; Pro(3S-OH,4S-Me) = C[C@H]1CN[C@H](C(=O)O)[C@H]1O; X1 = CCCCCOc1ccc(-c2cc(-c3ccc(C(=O)*)cc3)no2)cc1; Gln(3R-OH) = NC(=O)C[C@@H](O)[C@H](N)C(=O)O; Hyp = O=C(O)[C@@H]1C[C@@H](O)CN1
# Legend:
# Mucorales Mucor species = assay: In vitro susceptibility (MIC), macrobroth dilution; assay type: cell-based; conditions: Mucor sp. 13-127, drug alone; for MIC50: lowest concentration causing 50% decrease in growth vs untreated control; for MIC100: lowest concentration without growth
# [1] = test system: A549 human lung cancer cells; assay type: cell-based; conditions: 48 h, 10 %
# Protocol: Cytotoxicity assay: Cytotoxicity assays in A549 human lung cancer cells were performed using XTT assay as indicated in the manufacturers' instructions. Cells (2×10^5 cells/well) were seeded in 96-well tissue plates and incubated in Dulbecco's Modified Eagle Medium (DMEM) culture medium. After 24 hours of incubation, the cells were treated with BRI (40 and 80 μM/well), CAS (50, 100 and 200 μg/well) or in different CAS+BRI combinations. After 48 hours incubation, the cell viability was assessed by using the XTT kit (Roche Applied Science) according to the manufacturer's instructions. Formazan formation was quantified spectrophotometrically at 450 nm (reference wavelength 620 nm) using a microplate reader. The experiment was made in three replicates. Viability was calculated using the background-corrected absorbance as follows: Cell viability (%)=absorbance value of experiment well/absorbance value of control well×100.
# A. fumigatus [2] = assay: Alamar blue metabolic activity assay; assay type: cell-based, Aspergillus fumigatus; conditions: for interaction with BRI in inhibition of metabolic activity (Alamar blue): increasing concentrations + BRI 20 μM, 48 hours
# A. fumigatus [3] = assay: Protein kinase inhibitor (PKI) library screen with or without BRI; conditions: for growth, PKI (20 μM): PKI 20 μM alone; for growth, PKI (20 μM) + BRI (20 μM): PKI 20 μM together with BRI 20 μM
# Protocol: A protein kinase inhibitors (PKI) library was also screened in combination with BRI. In total, 58 PKI were analyzed. Briefly, 100 μL of liquid MM containing 2.5×10^3 conidia/mL of the A. fumigatus wild-type strain plus 10% alamar blue was inoculated with increasing concentration of PKI (5-80 μM) in the presence (or not) of BRI (20μM) and incubated 48 hours at 37° C. without shaking. […] Plates were incubated for 48 hours at 37° C. without shaking. All experiments containing alamar blue were, after 48 hours incubation, read spectrophotometically by fluorescence and analyzed as previously described. Experiments were repeated at least three times.
# To assess the mechanism of action of BRI, a collection of 58 protein kinase inhibitors (PKI, at a concentration of 20 μM; Table 4) was screened for A. fumigatus growth and corresponding metabolic activity alone or together with 20 μM BRI (Table 4).
# Cryptococcus neoformans = assay: In vitro susceptibility (MIC), macrobroth dilution; assay type: cell-based; conditions: C. neoformans CN9759, drug alone
# Candida albicans = assay: In vitro susceptibility (MIC), macrobroth dilution; assay type: cell-based; conditions: C. albicans 5, drug alone
# Aspergillus fumigatus = assay: In vitro susceptibility (MIC), macrobroth dilution; assay type: cell-based; conditions: drug alone; for MIC50: lowest concentration causing 50% decrease in growth vs untreated control; for MIC100: lowest concentration without growth
# A. fumigatus [4] = assay: MIC/MEC, CLSI M38-A2; assay type: cell-based, Aspergillus fumigatus; conditions: Aspergillus fumigatus, read-out: MIC VOR
# [5] = test system: A. fumigatus conidia infecting A549 pulmonary cells; assay: Killing assay in infected A549 cells; assay type: cell-based, Aspergillus fumigatus; conditions: monotherapy
# Protocol: Killing assay: The type II pneumocyte cell line A549 was cultured using DMEM (ThermoFischer Scientific, Paisley. […] After 24 hours of incubation in 5% CO2 the culture media was removed, and 2 ml of sterile water was added to the wells. A P1000 tip was then used to scrape away the cell monolayer and the cell suspension was collected. This suspension was then diluted 1:1000 and 100 μl was plated on Sabouraud Dextrose Agar Media before the plates were incubated a 37° C. overnight. The numbers of CFUs were determined after 24 hours of growth. A volume of 50 μl of the inoculum adjusted to 103/ml was also plated on SAB agar to correct CFU counts. The CFU percentage for each sample was calculated and the results were plotted using Graphpad Prism (GraphPad Software, Inc., La Jolla, CA, USA).
# A. fumigatus biofilms = assay: Biofilm assay (XTT); conditions: Aspergillus fumigatus, read-out: inhibition of biofilm formation
# Protocol: Biofilm assay: To test the susceptibility of pre-formed A. fumigatus biofilms to
# VOR, CAS and to the combination of CAS+BRI and VOR+BRI, a suspension containing 10^6 conidia per mL of the wild-type strain (Δku80 pyrG^+) was prepared in liquid MM and 100 μL of it was inoculated in each well of a 96-well plate. After 24 hours of incubation at 37° C., 50 μL of fresh MM containing CAS, VOR or the combination of VOR and CAS with BRI was added to the biofilm to reach the final concentration as indicated and incubated for a further 12 hours at 37° C. Wells containing untreated conidia were used as a positive control. After, the metabolic activity of the cells was evaluated by adding 50 μL of an aqueous XTT solution (1 mg/mL of XTT and 125 μM of menadione) to each well. The plate was incubated for additional 1 hour at 37° C., centrifuged (2000 rpm, 5 minutes) and 100 μL of the supernatant was transferred to a flat-bottomed 96-well plate. The absorbance was measured at 450 nm on a plate reader (Synergy HTX Multi-Mode Reader- BioTek Instruments). The XTT assay's were performed in six replicates.
# [6] = test system: A. fumigatus clinical isolates; assay: Growth inhibition of clinical isolates by CAS, VOR, BRI and combinations; conditions: strain CYP15-15-109, VOR
# [7] = lowest concentration causing 50% decrease in growth vs untreated control
# [8] = lowest concentration without growth
compound,measurement,setting,value
C[C@@H]1[C@H](O)[C@@H](C)/C=C/C=C/C=C/C=C/C=C/C=C/C=C/[C@H](O[C@@H]2O[C@H](C)[C@@H](O)[C@H](N)[C@@H]2O)C[C@@H]2O[C@](O)(C[C@@H](O)C[C@@H](O)[C@H](O)CC[C@@H](O)C[C@@H](O)CC(=O)O[C@H]1C)C[C@H](O)[C@H]2C(=O)O [Amphotericin B (AMPB)],MIC50,Mucorales Mucor species,0.25 µg/mL
same,MIC100,Mucorales Mucor species,0.5 µg/mL
"C[S+](C)[O-] [DMSO, dimethyl sulfoxide]",reduction of cell viability,[1],80%
CCn1c(=O)c(-c2ccc(Cl)cc2Cl)cc2cnc(Nc3ccc(N4CCNCC4)c(F)c3)nc21 [FRAX486],"effect on BRI activity (metabolic activity, Alamar blue)",A. fumigatus [2],potentiating the BRI activity
same,"growth, PKI (20 μM)",A. fumigatus [3],++ (++: growth ≥80% compared to no treatment)
same,"growth, PKI (20 μM) + BRI (20 μM)",A. fumigatus [3],+ (+: growth ≤60% compared to no treatment)
OC(Cn1cncn1)(Cn1cncn1)c1ccc(F)cc1F [Fluconazole (FLU)],MIC50,Cryptococcus neoformans; [7],1 µg/mL
same,MIC100,Cryptococcus neoformans; [8],1 µg/mL
"CCCCCOc1ccc(-c2cc(-c3ccc(C(=O)N[C@H]4C[C@@H](O)[C@@H](O)NC(=O)[C@@H]5[C@@H](O)[C@@H](C)CN5C(=O)[C@H]([C@H](O)CC(N)=O)NC(=O)[C@H]([C@H](O)[C@@H](O)c5ccc(O)c(OS(=O)(=O)O)c5)NC(=O)[C@@H]5C[C@@H](O)CN5C(=O)[C@H]([C@@H](C)O)NC4=O)cc3)no2)cc1 [Micafungin (MICA)] (X1-[Orn(4R-OH,5R-OH)]T[Hyp][hTyr(3S-OH,4S-OH,3'-OSO3H)][Gln(3R-OH)][Pro(3S-OH,4S-Me)]; lactam 1-C)",MIC50,Mucorales Mucor species,>16 µg/mL
same,MIC100,Mucorales Mucor species,>16 µg/mL
same,MIC50,Candida albicans; [7],≤0.03 µg/mL
same,MIC100,Candida albicans; [8],0.25 µg/mL
same,MIC50,Aspergillus fumigatus; A. fumigatus 21-23,≤0.06 µg/mL
same,MIC100,Aspergillus fumigatus; A. fumigatus 21-23,>16 µg/mL
Nc1ncnc2c1c(-c1cnc3[nH]ccc3c1)nn2C1CCCC1 [PP121],"effect on BRI activity (metabolic activity, Alamar blue)",A. fumigatus [2],potentiating the BRI activity
same,"growth, PKI (20 μM)",A. fumigatus [3],++ (++: growth ≥80% compared to no treatment)
same,"growth, PKI (20 μM) + BRI (20 μM)",A. fumigatus [3],+ (+: growth ≤60% compared to no treatment)
CC[C@@H]([C@H](C)O)n1ncn(-c2ccc(N3CCN(c4ccc(OC[C@@H]5CO[C@@](Cn6cncn6)(c6ccc(F)cc6F)C5)cc4)CC3)cc2)c1=O [Posaconazole (POSA)],MIC50,Mucorales Mucor species,1 µg/mL
same,MIC100,Mucorales Mucor species,>16 µg/mL
"C[C@@H](c1ncncc1F)[C@](O)(Cn1cncn1)c1ccc(F)cc1F [VOR, voriconazole]",MIC,A. fumigatus [4]; A. fumigatus VOR^R clinical isolate named in c0 of the row,8 µg/mL
same,MIC,A. fumigatus [4]; A. fumigatus WT (CEA17),2 µg/mL
same,A. fumigatus killing,[5],~60%
same,inhibition at 2 µg/mL,A. fumigatus biofilms,~10%
same,inhibition at 4 µg/mL,A. fumigatus biofilms,~50%
same,growth inhibition,[6],totally inhibited
C[C@@H](c1ncncc1F)[C@](O)(Cn1cncn1)c1ccc(F)cc1F [Voriconazole (VOR)],MIC50,Aspergillus fumigatus; A. fumigatus 10AF,0.125 µg/mL
same,MIC100,Aspergillus fumigatus; A. fumigatus 10AF,1 µg/mL
COc1ccc2c(c[n+](C)c3c4cc5c(cc4ccc23)OCO5)c1OC [chelerenthrine],interaction with BRI in inhibition of metabolic activity (Alamar blue),A. fumigatus [2],synergize
calphostin C,interaction with BRI in inhibition of metabolic activity (Alamar blue),A. fumigatus [2],synergize
